Assay results taken from ChEMBL document CHEMBL1149100, “New 2,4-diamino-5-(2',5'-substituted benzyl)pyrimidines as potential drugs against opportunistic infections of AIDS and other immune disorders. Synthesis and species-dependent antifolate activity” (J Med Chem, 2004).
Values after ≈ are worked out from the molar mass of the structure shown.

Key:
Dihydrofolate reductase [1] = biological target: T1, Dihydrofolate reductase (Rattus norvegicus, UniProt Q920D2)
T1 sequence (Q920D2 whole entry): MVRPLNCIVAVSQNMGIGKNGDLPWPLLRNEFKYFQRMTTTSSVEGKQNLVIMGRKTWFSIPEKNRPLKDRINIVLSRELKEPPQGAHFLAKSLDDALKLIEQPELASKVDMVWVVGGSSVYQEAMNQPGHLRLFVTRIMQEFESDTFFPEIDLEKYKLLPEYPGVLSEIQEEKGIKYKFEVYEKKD
Description: Inhibitory concentration against dihydrofolate reductase of rat liver

Dihydrofolate reductase [2] = biological target: T2, Dihydrofolate reductase (Pneumocystis carinii, UniProt P16184)
T2 sequence (P16184 whole entry): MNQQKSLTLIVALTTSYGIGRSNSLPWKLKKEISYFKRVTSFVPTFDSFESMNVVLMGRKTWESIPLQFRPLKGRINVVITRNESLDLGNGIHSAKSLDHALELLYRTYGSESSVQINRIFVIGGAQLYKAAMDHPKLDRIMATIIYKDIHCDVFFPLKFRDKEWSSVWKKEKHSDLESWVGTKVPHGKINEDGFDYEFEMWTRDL
Description: Inhibitory concentration against dihydrofolate reductace enzyme of Pneumocystis carinii

Dihydrofolate reductase [3] = biological target: T3, Dihydrofolate reductase (Mycobacterium avium, UniProt O30463)
T3 sequence (O30463 whole entry): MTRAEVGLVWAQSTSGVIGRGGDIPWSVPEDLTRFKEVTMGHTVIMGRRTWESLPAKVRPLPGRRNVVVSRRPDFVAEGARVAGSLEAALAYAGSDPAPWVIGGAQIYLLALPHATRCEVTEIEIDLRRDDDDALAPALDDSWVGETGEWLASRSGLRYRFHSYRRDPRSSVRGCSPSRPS
Description: Inhibitory concentration against dihydrofolate reductase of Mycobacterium avium

[4] = biological target: T4, Bifunctional dihydrofolate reductase-thymidylate synthase (Toxoplasma gondii, UniProt Q07422)
T4 sequence (Q07422 whole entry): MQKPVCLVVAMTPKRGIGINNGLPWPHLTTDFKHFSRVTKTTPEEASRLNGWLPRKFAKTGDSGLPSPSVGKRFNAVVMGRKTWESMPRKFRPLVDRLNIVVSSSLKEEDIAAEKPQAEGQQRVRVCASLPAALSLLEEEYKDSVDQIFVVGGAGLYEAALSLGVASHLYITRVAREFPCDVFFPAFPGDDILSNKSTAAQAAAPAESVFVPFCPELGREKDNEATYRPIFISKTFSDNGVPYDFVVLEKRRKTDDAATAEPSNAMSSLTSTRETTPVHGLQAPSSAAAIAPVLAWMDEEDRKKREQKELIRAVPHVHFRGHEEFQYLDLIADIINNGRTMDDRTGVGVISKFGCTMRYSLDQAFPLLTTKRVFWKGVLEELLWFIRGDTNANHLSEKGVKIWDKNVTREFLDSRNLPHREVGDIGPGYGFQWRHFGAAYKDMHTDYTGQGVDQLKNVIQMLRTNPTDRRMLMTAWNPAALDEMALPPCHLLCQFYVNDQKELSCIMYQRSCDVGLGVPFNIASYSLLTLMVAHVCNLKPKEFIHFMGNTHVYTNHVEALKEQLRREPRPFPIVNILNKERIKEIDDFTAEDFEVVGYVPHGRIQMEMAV

Mycobacterium avium [5] = test: Minimum inhibitory concentration required against Mycobacterium avium isolate from patient number MAC100; format: functional
Mycobacterium avium [6] = test: Minimum inhibitory concentration required against Mycobacterium avium isolate from patient number MAC116; format: functional
Mycobacterium avium [7] = test: Minimum inhibitory concentration required against Mycobacterium avium isolate from patient number MAC101; format: functional
Mycobacterium avium [8] = test: Minimum inhibitory concentration required against Mycobacterium avium isolate from patient number MAC109; format: functional
Mycobacterium avium [9] = test: Minimum inhibitory concentration required against Mycobacterium avium isolate from patient number MAC108; format: functional
Mycobacterium avium [10] = test: Concentration of compound required against Mycobacterium avium; Range is 2-32; format: functional, organism-based
Mycobacterium avium [11] = test: Minimum inhibitory concentration required for 50 percent inhibition of Mycobacterium avium isolate; format: functional
Mycobacterium avium [12] = test: Minimum inhibitory concentration required for 90 percent inhibition of Mycobacterium avium isolate; format: functional
Mycobacterium avium [13] = test: Minimum inhibitory concentration required against Mycobacterium avium isolate from patient number MAC16; format: functional
Mycobacterium avium [14] = test: microbe, parasite or virus in culture
Mycobacterium avium [15] = test: Concentration of compound required against Mycobacterium avium; Range is 4-32; format: functional, organism-based
Mycobacterium avium [16] = test: Concentration of compound required against Mycobacterium aviumRange is 2-32; format: functional, organism-based
Mycobacterium avium [17] = test: Concentration of compound required against Mycobacterium avium; Range is 2-16 ug/mL; format: functional, organism-based

| SMILES | IC50 (Dihydrofolate reductase [3]) [nM] | MIC (Mycobacterium avium [5]) [µg/mL] | MIC (Mycobacterium avium [7]) [µg/mL] | MIC (Mycobacterium avium [8]) [µg/mL] | MIC (Mycobacterium avium [9]) [µg/mL] | MIC50 (Mycobacterium avium [11]) [µg/mL] | MIC90 (Mycobacterium avium [12]) [µg/mL] | MIC (Mycobacterium avium [13]) [µg/mL] | other results |
| --- | --- | --- | --- | --- | --- | --- | --- | --- | --- |
| COc1ccc(CCc2ccc(C(=O)O)cc2)cc1Cc1cnc(N)nc1N | 25 |  |  |  |  |  |  |  | IC50 (Dihydrofolate reductase [1]): 13 µM; IC50 (Dihydrofolate reductase [2]): 7.1 µM; IC50 [4]: 1500 nM |
| COc1ccc(C#Cc2ccccc2C(=O)O)cc1Cc1cnc(N)nc1N | 100 | > 64 | > 64 | > 64 | > 64 |  |  |  | IC50 (Dihydrofolate reductase [1]): 25 µM; IC50 (Dihydrofolate reductase [2]): 4.1 µM; MIC (Mycobacterium avium [6]): > 64 µg/mL; IC50 [4]: 1900 nM |
| COc1ccc(C#CCCCCC(=O)O)cc1Cc1cnc(N)nc1N |  | 4 (≈ 11.3 µM) | 2 (≈ 5.64 µM) | 4 (≈ 11.3 µM) | > 32 | 8 (≈ 22.6 µM) | 16 (≈ 45.1 µM) | 2 (≈ 5.64 µM) | Concentration (Mycobacterium avium [10]): 32 µg/mL |
| COc1ccc(C#Cc2ccc(C(=O)O)cc2)cc1Cc1cnc(N)nc1N | 3.7 | > 64 | > 64 | > 64 | > 64 |  |  | > 64 | IC50 (Dihydrofolate reductase [1]): 8.2 µM; IC50 (Dihydrofolate reductase [2]): 1.3 µM; IC50 [4]: 340 nM |
| COc1cc(Cc2cnc(N)nc2N)cc(OC)c1OC [TRIMETHOPRIM] |  |  |  |  |  |  |  |  | MIC (Mycobacterium avium [14]): > 64 µg/mL |
| COc1ccc(OCCCCCC(=O)O)cc1Cc1cnc(N)nc1N |  | 16 (≈ 44.4 µM) | 8 (≈ 22.2 µM) | 8 (≈ 22.2 µM) | 32 (≈ 88.8 µM) | 4 (≈ 11.1 µM) | 32 (≈ 88.8 µM) | 8 (≈ 22.2 µM) | Concentration (Mycobacterium avium [15]): 32 µg/mL |
| CCCCCCOc1ccc(OC)c(Cc2cnc(N)nc2N)c1 |  | 32 (≈ 96.8 µM) | 32 (≈ 96.8 µM) | 32 (≈ 96.8 µM) | 32 (≈ 96.8 µM) |  |  | 32 (≈ 96.8 µM) |  |
| COc1ccc(OCc2ccc(C(=O)O)cc2)cc1Cc1cnc(N)nc1N |  | > 32 | > 32 | > 32 | > 32 |  |  | > 32 |  |
| Cc1ccc(Cl)cc1Cc1cnc2nc(N)nc(N)c2c1C | 0.19 |  |  |  |  |  |  |  |  |
| COc1ccc(C#CCOc2cccc(C(=O)O)c2)cc1Cc1cnc(N)nc1N |  | > 32 | > 32 | > 32 | > 32 |  |  | > 32 |  |
| COc1ccc(/C=C/COc2ccccc2C(=O)O)cc1Cc1cnc(N)nc1N | 380 |  |  |  |  |  |  |  | IC50 (Dihydrofolate reductase [1]): 6.4 µM; IC50 (Dihydrofolate reductase [2]): 8.6 µM; IC50 [4]: 2500 nM |
| COc1ccc(OCc2cccc(C(=O)O)c2)cc1Cc1cnc(N)nc1N |  | > 32 | > 32 | > 32 | > 32 |  |  | > 32 |  |
| COc1ccc(CCCOc2cccc(C(=O)O)c2)cc1Cc1cnc(N)nc1N | 25 |  |  |  |  |  |  |  | IC50 (Dihydrofolate reductase [1]): 4 µM; IC50 (Dihydrofolate reductase [2]): 1.1 µM; IC50 [4]: 210 nM |
| COc1ccc(OCCCCCCC(=O)O)cc1Cc1cnc(N)nc1N |  | 16 (≈ 42.7 µM) | 8 (≈ 21.4 µM) | 8 (≈ 21.4 µM) | > 32 | 4 (≈ 10.7 µM) | 32 (≈ 85.5 µM) | 16 (≈ 42.7 µM) | Concentration (Mycobacterium avium [16]): 32 µg/mL |
| COc1ccc(OCCCCC(=O)O)cc1Cc1cnc(N)nc1N |  | 16 (≈ 46.2 µM) | 16 (≈ 46.2 µM) | 16 (≈ 46.2 µM) | > 32 | 16 (≈ 46.2 µM) | 32 (≈ 92.4 µM) | 16 (≈ 46.2 µM) |  |
| COc1ccc(OCCCC(=O)O)cc1Cc1cnc(N)nc1N |  | 16 (≈ 48.1 µM) | 16 (≈ 48.1 µM) | 32 (≈ 96.3 µM) | 16 (≈ 48.1 µM) |  |  | 32 (≈ 96.3 µM) |  |
| COc1cc(Cc2cnc3nc(N)nc(N)c3c2C)cc(OC)c1 | 0.64 |  |  |  |  |  |  |  |  |
| COc1ccc(CCCCC(=O)O)cc1Cc1cnc(N)nc1N |  | > 32 | > 32 | > 32 | > 32 |  |  |  | MIC (Mycobacterium avium [6]): > 32 µg/mL |
| COc1ccc(C#CCOc2ccccc2C(=O)O)cc1Cc1cnc(N)nc1N |  | > 32 | > 32 | > 32 | > 32 |  |  | > 32 |  |
| COc1ccc(CCCCCC(=O)O)cc1Cc1cnc(N)nc1N |  | 32 (≈ 92.9 µM) | 16 (≈ 46.5 µM) | 32 (≈ 92.9 µM) | > 32 |  |  | 32 (≈ 92.9 µM) |  |
| COc1ccc(CCCCCCC(=O)O)cc1Cc1cnc(N)nc1N |  | > 32 | 32 (≈ 89.3 µM) | 32 (≈ 89.3 µM) | > 32 |  |  | 16 (≈ 44.6 µM) |  |
| COc1ccc(OCCCCCCCCC(=O)O)cc1Cc1cnc(N)nc1N |  | 8 (≈ 19.9 µM) | 2 (≈ 4.97 µM) | 4 (≈ 9.94 µM) | > 32 | 4 (≈ 9.94 µM) | 8 (≈ 19.9 µM) | 2 (≈ 4.97 µM) | Concentration (Mycobacterium avium [17]): 16 µg/mL |
| COc1ccc(OCCCCCCCC(=O)O)cc1Cc1cnc(N)nc1N |  | 8 (≈ 20.6 µM) | 4 (≈ 10.3 µM) | 2 (≈ 5.15 µM) | 32 (≈ 82.4 µM) | 4 (≈ 10.3 µM) | 8 (≈ 20.6 µM) | 2 (≈ 5.15 µM) | Concentration (Mycobacterium avium [10]): 32 µg/mL |
| COc1ccc(C#CCCC(=O)O)cc1Cc1cnc(N)nc1N |  | 8 (≈ 24.5 µM) | 8 (≈ 24.5 µM) | 16 (≈ 49 µM) | 16 (≈ 49 µM) | 8 (≈ 24.5 µM) | 16 (≈ 49 µM) | 16 (≈ 49 µM) | Concentration (Mycobacterium avium [15]): 32 µg/mL |
| COc1ccc(C#CCCCC(=O)O)cc1Cc1cnc(N)nc1N |  | 8 (≈ 23.5 µM) | 4 (≈ 11.8 µM) | 16 (≈ 47 µM) | 32 (≈ 94 µM) | 8 (≈ 23.5 µM) | 16 (≈ 47 µM) | 8 (≈ 23.5 µM) | Concentration (Mycobacterium avium [15]): 32 µg/mL |
| CCCCCCCOc1ccc(OC)c(Cc2cnc(N)nc2N)c1 |  | 8 (≈ 23.2 µM) | 4 (≈ 11.6 µM) | 8 (≈ 23.2 µM) | 8 (≈ 23.2 µM) | 8 (≈ 23.2 µM) | 8 (≈ 23.2 µM) | 8 (≈ 23.2 µM) | Concentration (Mycobacterium avium [17]): 16 µg/mL |
| COc1ccc(C#Cc2cccc(C(=O)O)c2)cc1Cc1cnc(N)nc1N | 1.5 | > 64 | > 64 | > 64 | > 64 |  |  | > 64 | IC50 (Dihydrofolate reductase [1]): 0.65 µM; IC50 (Dihydrofolate reductase [2]): 0.023 µM; IC50 [4]: 5.5 nM |
| COc1ccc(CCCOc2ccccc2C(=O)O)cc1Cc1cnc(N)nc1N | 310 |  |  |  |  |  |  |  | IC50 (Dihydrofolate reductase [1]): 25 µM; IC50 (Dihydrofolate reductase [2]): 7.8 µM; IC50 [4]: 710 nM |
